Test [1] concerns the target T1, recombinant human ALK5 (TGF-βR1) protein (Homo sapiens, UniProt P36897).
T1 construct: purchased Life Technologies PR9075A
T1 sequence (P36897 34-503): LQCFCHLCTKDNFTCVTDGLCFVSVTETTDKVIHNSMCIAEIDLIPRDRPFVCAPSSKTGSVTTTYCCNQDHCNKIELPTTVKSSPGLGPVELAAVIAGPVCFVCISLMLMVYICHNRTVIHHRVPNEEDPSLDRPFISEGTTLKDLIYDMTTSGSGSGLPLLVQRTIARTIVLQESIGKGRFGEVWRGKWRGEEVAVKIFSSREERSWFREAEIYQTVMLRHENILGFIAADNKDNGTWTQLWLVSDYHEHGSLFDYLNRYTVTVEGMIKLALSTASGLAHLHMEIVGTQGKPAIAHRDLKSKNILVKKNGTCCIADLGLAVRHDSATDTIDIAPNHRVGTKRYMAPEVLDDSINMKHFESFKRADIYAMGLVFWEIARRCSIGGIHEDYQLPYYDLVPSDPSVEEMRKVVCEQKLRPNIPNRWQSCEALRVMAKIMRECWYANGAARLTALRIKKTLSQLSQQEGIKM
In words: Biochemical ALK5 (TGF-βR1) assay to measure pKi (LANCE Ultra ULight kinase assay). As to conditions: apparent pKi from pIC50 by Cheng-Prusoff, read-out: ALK5 pKi (converted). The method, boiled down: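 Dose range 10 μM–25 pM; enzyme + compound 60 min RT; ATP added (5× stock 125 μM, 2 mM DTT); 60 min 37 °C; stop with EDTA + Eu anti-phospho-Topo IIα Thr1342 Ab; TR-FRET ex 320/340, em 665 nm. 4-param pIC50 → pKi (Cheng-Prusoff).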

For test [2], the system named is TGF-β-stimulated SMAD3 phosphorylation in BEAS-2B cells. The test can be described thus: Cellular ALK5 potency assay, inhibition of TGF-β stimulated pSMAD3 formation in BEAS-2B cells. The class given is cell-based. As to conditions: Homo sapiens; inhibition of TGF-β stimulated pSMAD3 formation, BEAS-2B cells; read-out: BEAS2B pIC50 (converted). The method, boiled down:
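pSMAD3 was quantified by AlphaLISA in BEAS-2B lysates after 10 ng/mL TGF-β (final) for 30 min. Before stimulation, cells received compound for 1 h at 37° C in supplemented HBSS. Values are pIC50, relative to TGF-β-stimulated cells without compound.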

As to `Cc1nc(-c2n[nH]cc2-c2ccc3ncc(-c4[nH]nc5c4CCN5)cc3n2)ccc1F` [Compound 515, 2-[3-(5-fluoro-6-methyl-2-pyridyl)-1H-pyrazol-4-yl]-7-(2,4,5,6-tetrahydropyrrolo[2,3-c]pyrazol-3-yl)-1,5-naphthyridine], the Ki in test [1] was below 0.0316 nM. The IC50 in test [2] is 25.1 to 158 nM.

Turning to `Cc1cccc(-c2[nH]ncc2-c2ccc3nccc(C(=O)OC[C@@H]4CCCN4)c3c2)n1` [Compound 1233, [(2S)-pyrrolidin-2-yl]methyl 6-[5-(6-methyl-2-pyridyl)-1H-pyrazol-4-yl]quinoline-4-carboxylate], the Ki in test [1] is 0.0398 to 0.316 nM. Besides, the IC50 in test [2] was 25.1 to 158 nM.

For `Cc1cccc(-c2[nH]cnc2-c2ccc3ncc(-c4ncc(C(=O)OCC5CNC5)cn4)cc3c2)n1` [Compound 1144, azetidin-3-ylmethyl 2-[6-[5-(6-methyl-2-pyridyl)-1H-imidazol-4-yl]-3-quinolyl]pyrimidine-5-carboxylate], the Ki in test [1] was 0.0398 to 0.316 nM. Further, the IC50 in test [2] was 25.1 to 158 nM.

In the case of `Cc1cccc(-c2nc3ccccn3c2-c2ccc3ncc(N4CCC(N(C)C)C4)cc3n2)n1` (racemic) [Compound 285, rac-(3S)-N,N-dimethyl-1-[6-[2-(6-methyl-2-pyridyl)imidazo[1,2-a]pyridin-3-yl]-1,5-naphthyridin-3-yl]pyrrolidin-3-amine], the Ki in test [1] is 0.0398 to 0.316 nM. Moreover, the IC50 in test [2] is 25.1 to 158 nM.

Turning to `Cc1cccc(-c2[nH]cnc2-c2ccc3ncc(C(=O)O[C@H]4CC[C@H](N)CC4)cc3c2)n1` [Compound 763, (4-aminocyclohexyl) 6-[5-(6-methyl-2-pyridyl)-1H-imidazol-4-yl]quinoline-3-carboxylate], the Ki in test [1] was 0.0398 to 0.316 nM. In addition, the IC50 in test [2] was 25.1 to 158 nM.

On to `Cc1cccc(-c2[nH]cnc2-c2ccc3ncc(N4CCC(C(=O)O[C@@H]5CCN(C)C5)CC4)cc3c2)n1` [Compound 702, [(3R)-1-methylpyrrolidin-3-yl] 1-[6-[5-(6-methyl-2-pyridyl)-1H-imidazol-4-yl]-3-quinolyl]piperidine-4-carboxylate], for which, in test [1], the Ki is 0.0398 to 0.316 nM. Also, the IC50 in test [2] was 25.1 to 158 nM.

As for `CCOC(=O)c1ccnc2ccc(-c3c[nH]nc3-c3cccc(C)n3)nc12` [Compound 800, ethyl 6-[3-(6-methyl-2-pyridyl)-1H-pyrazol-4-yl]-1,5-naphthyridine-4-carboxylate], in test [1], the Ki was 0.0398 to 0.316 nM. Besides, the IC50 in test [2] was 25.1 to 158 nM.

For `Cc1cccc(-c2n[nH]cc2-c2ccc3ncc(-c4cnn(CC(=O)N5CCNCC5)c4)cc3n2)n1` [Compound 295, 2-[4-[6-[3-(6-methyl-2-pyridyl)-1H-pyrazol-4-yl]-1,5-naphthyridin-3-yl]pyrazol-1-yl]-1-piperazin-1-yl-ethanone], the Ki in test [1] was 0.0398 to 0.316 nM. Also, in test [2], the IC50 was 200 to 1260 nM.

With `Cc1cccc(-c2[nH]cnc2-c2ccc3ncc(-c4ccc(C(=O)OC[C@H]5CCCN5)cn4)cc3c2)n1` [Compound 1170, [(2R)-pyrrolidin-2-yl]methyl 6-[6-[5-(6-methyl-2-pyridyl)-1H-imidazol-4-yl]-3-quinolyl]pyridine-3-carboxylate], the Ki in test [1] was 0.0398 to 0.316 nM. For the same molecule, the IC50 in test [2] was 25.1 to 158 nM.

As for `CN[C@H]1CC[C@H](OC(=O)c2ccnc3ccc(-c4cn[nH]c4-c4cccc(C)n4)cc23)CC1` [Compound 1179, [4-(methylamino)cyclohexyl] 6-[5-(6-methyl-2-pyridyl)-1H-pyrazol-4-yl]quinoline-4-carboxylate], the Ki in test [1] was 0.398 to 3.16 nM. Moreover, the IC50 in test [2] was 25.1 to 158 nM.

For the molecule `Cc1cccc(-c2nc3ccccn3c2-c2ccc3ncc(-c4nnn5c4CNCC5)cc3n2)n1` [Compound 207, 2-[2-(6-methyl-2-pyridyl)imidazo[1,2-a]pyridin-3-yl]-7-(4,5,6,7-tetrahydrotriazolo[1,5-a]pyrazin-3-yl)-1,5-naphthyridine], the Ki in test [1] is 0.0398 to 0.316 nM. In addition, in test [2], the IC50 was 25.1 to 158 nM.

As to `CNCCn1cc(-c2cnc3ccc(-c4c(-c5cccc(C)n5)[nH]c5cccnc45)nc3c2)cn1` [Compound 165, N-methyl-2-[4-[6-[2-(6-methyl-2-pyridyl)-1H-pyrrolo[3,2-b]pyridin-3-yl]-1,5-naphthyridin-3-yl]pyrazol-1-yl]ethanamine], the Ki in test [1] is 0.0398 to 0.316 nM. In addition, in test [2], the IC50 is 200 to 1260 nM.

For the molecule `CNCCn1ccc(-c2cnc3ccc(-c4c[nH]nc4-c4cccc(C)n4)nc3c2)n1` [Compound 229, N-methyl-2-[3-[6-[3-(6-methyl-2-pyridyl)-1H-pyrazol-4-yl]-1,5-naphthyridin-3-yl]pyrazol-1-yl]ethanamine], the Ki in test [1] is below 0.0316 nM. In addition, in test [2], the IC50 was 25.1 to 158 nM.

`Cc1cccc(-c2[nH]ncc2-c2ccc3nccc(C(=O)O[C@H]4CC[C@H](N)CC4)c3c2)n1` [Compound 1217, (4-aminocyclohexyl) 6-[5-(6-methyl-2-pyridyl)-1H-pyrazol-4-yl]quinoline-4-carboxylate]: in test [1], the Ki is 0.398 to 3.16 nM. In addition, the IC50 in test [2] was 25.1 to 158 nM.

As to `Cc1cccc(-c2n[nH]cc2-c2ccc3ncc(-c4cnn5c4CNCC5)cc3n2)n1` [Compound 308, 2-[3-(6-methyl-2-pyridyl)-1H-pyrazol-4-yl]-7-(4,5,6,7-tetrahydropyrazolo[1,5-a]pyrazin-3-yl)-1,5-naphthyridine], the Ki in test [1] was 0.0398 to 0.316 nM. Moreover, the IC50 in test [2] was below 20 nM.

Consider `Cc1cccc(-c2[nH]cnc2-c2ccc3ncc(-c4ccc(C(=O)O[C@@H]5CCN(C)C5)s4)cc3c2)n1` [Compound 1009, (R)-1-methylpyrrolidin-3-yl 5-(6-(5-(6-methylpyridin-2-yl)-1H-imidazol-4-yl)quinolin-3-yl)thiophene-2-carboxylate], for which the Ki in test [1] is 0.0398 to 0.316 nM. Further, the IC50 in test [2] is 25.1 to 158 nM.

`Cc1cccc(-c2[nH]cnc2-c2ccc3ncc(C4=CC[C@@H](NC(=O)[C@H]5CCCN5)CC4)cc3c2)n1` [Compound 777, (2R)-N-[(1S)-4-[6-[5-(6-methyl-2-pyridyl)-1H-imidazol-4-yl]-3-quinolyl]cyclohex-3-en-1-yl]pyrrolidine-2-carboxamide]: the Ki in test [1] was 0.0398 to 0.316 nM. Moreover, the IC50 in test [2] is 25.1 to 158 nM.

Take `Cc1nc(-c2n[nH]cc2-c2ccc3ncc(-c4nnn5c4CNCC5)cc3n2)ccc1F` [Compound 466, 2-[3-(5-fluoro-6-methyl-2-pyridyl)-1H-pyrazol-4-yl]-7-(4,5,6,7-tetrahydrotriazolo[1,5-a]pyrazin-3-yl)-1,5-naphthyridine]: in test [1], the Ki is 0.0398 to 0.316 nM. Moreover, in test [2], the IC50 was 25.1 to 158 nM.

As to `Cc1cccc(-c2[nH]cnc2-c2ccc3ncc(C4=CCN(C)C4)cc3n2)n1` [Compound 309, 7-(1-methyl-2,5-dihydropyrrol-3-yl)-2-[5-(6-methyl-2-pyridyl)-1H-imidazol-4-yl]-1,5-naphthyridine], the Ki in test [1] was below 0.0316 nM. In test [2], the IC50 was 25.1 to 158 nM.

`Cc1cccc(-c2n[nH]cc2-c2ccc3nccc(N(C)CCN4CCOCC4)c3n2)n1` [Compound 831, N-methyl-6-[3-(6-methyl-2-pyridyl)-1H-pyrazol-4-yl]-N-(2-morpholinoethyl)-1,5-naphthyridin-4-amine]: in test [1], the Ki is 0.0398 to 0.316 nM. Also, the IC50 in test [2] was 200 to 1260 nM.

As for `Cc1cccc(-c2[nH]cnc2-c2ccc3ncc(N(C)CC4CNC4)cc3c2)n1` [Compound 6, N-(azetidin-3-ylmethyl)-N-methyl-6-[5-(6-methyl-2-pyridyl)-1H-imidazol-4-yl]quinolin-3-amine], the Ki in test [1] is 0.0398 to 0.316 nM. In test [2], the IC50 was 25.1 to 158 nM.

As to `Cc1cccc(-c2[nH]cnc2-c2ccc3ncc(C4=CCC(C(=O)O[C@@H]5CCNC5)CC4)cc3c2)n1` (stereo partly drawn) [Compound 49, [(3R)-pyrrolidin-3-yl] 4-[6-[5-(6-methyl-2-pyridyl)-1H-imidazol-4-yl]-3-quinolyl]cyclohex-3-ene-1-carboxylate], the Ki in test [1] is 0.0398 to 0.316 nM. In test [2], the IC50 is 25.1 to 158 nM.

As for `Cc1cccc(-c2n[nH]cc2-c2ccc3ncc(N4CCC(O)CC4)cc3n2)n1` [Compound 282, 1-[6-[3-(6-methyl-2-pyridyl)-1H-pyrazol-4-yl]-1,5-naphthyridin-3-yl]piperidin-4-ol], the Ki in test [1] was below 0.0316 nM. Also, the IC50 in test [2] is below 20 nM.

Turning to `Cc1cccc(-c2n[nH]cc2-c2ccc3ncc(-c4ccc(C5CCCN(Cc6ccccc6)C5)cc4)cc3n2)n1` (centres unmarked) [Compound 251, 7-[4-(1-benzyl-3-piperidyl)phenyl]-2-[3-(6-methyl-2-pyridyl)-1H-pyrazol-4-yl]-1,5-naphthyridine], in test [1], the Ki was 0.0398 to 0.316 nM. Moreover, in test [2], the IC50 was 200 to 1260 nM.

Regarding `Cc1cccc(-c2[nH]cnc2-c2ccc3ncc(-c4ccc(C(=O)O[C@H]5CCN(C)C5)cc4)cc3c2)n1` [Compound 545, [(3S)-1-methylpyrrolidin-3-yl] 4-[6-[5-(6-methyl-2-pyridyl)-1H-imidazol-4-yl]-3-quinolyl]benzoate], in test [1], the Ki is 0.0398 to 0.316 nM. The IC50 in test [2] was 25.1 to 158 nM.
